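The compound was tested at five concentrations on cells cultured in 96-well plates, with a 48-hour exposure period. At the GI50, growth is halved. TGI: concentration producing complete growth inhibition.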
Columns and labels:
Assay in all cases: NCI anticancer screen, dose series, 48 h
786-0 renal = system: 786-0 renal
A498 renal = system: A498 renal
A549 NSCLC = system: A549 NSCLC
ACHN renal = system: ACHN renal
BT-549 breast = system: BT-549 breast
CAKI-1 renal = system: CAKI-1 renal
CCRF-CEM leukemia = system: CCRF-CEM leukemia
COLO 205 colon = system: COLO 205 colon
DU-145 prostate = system: DU-145 prostate
EKVX NSCLC = system: EKVX NSCLC
HCC-2998 colon = system: HCC-2998 colon
HCT-116 colon = system: HCT-116 colon
HCT-15 colon = system: HCT-15 colon
HL-60(TB) leukemia = system: HL-60(TB) leukemia
HOP-62 NSCLC = system: HOP-62 NSCLC
HS 578T breast = system: HS 578T breast
HT29 colon = system: HT29 colon
IGROV1 ovarian = system: IGROV1 ovarian
K-562 leukemia = system: K-562 leukemia
KM12 colon = system: KM12 colon
LOX IMVI melanoma = system: LOX IMVI melanoma
M14 melanoma = system: M14 melanoma
MALME-3M melanoma = system: MALME-3M melanoma
MCF7 breast = system: MCF7 breast
MDA-MB-231 breast = system: MDA-MB-231 breast
MDA-MB-435 = system: MDA-MB-435
MOLT-4 leukemia = system: MOLT-4 leukemia
NCI-H226 lung = system: NCI-H226 lung
NCI-H23 lung = system: NCI-H23 lung
NCI-H460 lung = system: NCI-H460 lung
NCI-H522 lung = system: NCI-H522 lung
NCI/ADR-RES ovarian = system: NCI/ADR-RES ovarian
OVCAR-3 ovarian = system: OVCAR-3 ovarian
OVCAR-4 ovarian = system: OVCAR-4 ovarian
OVCAR-5 ovarian = system: OVCAR-5 ovarian
OVCAR-8 ovarian = system: OVCAR-8 ovarian
PC-3 prostate = system: PC-3 prostate
RPMI-8226 leukemia = system: RPMI-8226 leukemia
RXF 393 renal = system: RXF 393 renal
SF-268 CNS = system: SF-268 CNS
SF-295 CNS = system: SF-295 CNS
SF-539 CNS = system: SF-539 CNS
SK-MEL-2 melanoma = system: SK-MEL-2 melanoma
SK-MEL-28 melanoma = system: SK-MEL-28 melanoma
SK-MEL-5 melanoma = system: SK-MEL-5 melanoma
SK-OV-3 ovarian = system: SK-OV-3 ovarian
SN12C renal = system: SN12C renal
SNB-19 CNS = system: SNB-19 CNS
SNB-75 CNS = system: SNB-75 CNS
SW-620 colon = system: SW-620 colon
T-47D breast = system: T-47D breast
TK-10 renal = system: TK-10 renal
U251 CNS = system: U251 CNS
UACC-257 melanoma = system: UACC-257 melanoma
UACC-62 melanoma = system: UACC-62 melanoma
UO-31 renal = system: UO-31 renal

COc1cc(NC(=O)c2cc(O)c(CC=C(C)C)c(O)c2)cc2c1O[C@]1(C)CC[C@@H](O)C(C)(C)[C@H]1C2
GI50 (786-0 renal): 0.567 µM | TGI (786-0 renal): 7.24 µM | GI50 (A498 renal): 1.21 µM | TGI (A498 renal): 7.94 µM | GI50 (A549 NSCLC): 6.87 µM | TGI (A549 NSCLC): 23.2 µM | GI50 (ACHN renal): 5.38 µM | TGI (ACHN renal): 48.7 µM | GI50 (BT-549 breast): 0.819 µM | TGI (BT-549 breast): 13.5 µM | GI50 (CAKI-1 renal): 3.17 µM | TGI (CAKI-1 renal): > 100 µM | GI50 (CCRF-CEM leukemia): 2.21 µM | TGI (CCRF-CEM leukemia): > 100 µM | GI50 (COLO 205 colon): 2.24 µM | TGI (COLO 205 colon): 5.5 µM | GI50 (DU-145 prostate): 7.49 µM | TGI (DU-145 prostate): 20.5 µM | GI50 (EKVX NSCLC): 5.96 µM | TGI (EKVX NSCLC): 48.2 µM | GI50 (HCC-2998 colon): 10.6 µM | TGI (HCC-2998 colon): 24.8 µM | GI50 (HCT-116 colon): 3.37 µM | TGI (HCT-116 colon): 15.4 µM | GI50 (HCT-15 colon): 4.09 µM | TGI (HCT-15 colon): 21.3 µM | GI50 (HL-60(TB) leukemia): 1.88 µM | TGI (HL-60(TB) leukemia): 18.7 µM | GI50 (HOP-62 NSCLC): 5.2 µM | TGI (HOP-62 NSCLC): 30.9 µM | GI50 (HS 578T breast): 0.456 µM | TGI (HS 578T breast): 15.5 µM | GI50 (HT29 colon): 3.47 µM | TGI (HT29 colon): 11.9 µM | GI50 (IGROV1 ovarian): 7.51 µM | TGI (IGROV1 ovarian): 54.9 µM | GI50 (K-562 leukemia): 3.58 µM | TGI (K-562 leukemia): 34.1 µM | GI50 (KM12 colon): 4.12 µM | TGI (KM12 colon): 18.4 µM | GI50 (LOX IMVI melanoma): 3.07 µM | TGI (LOX IMVI melanoma): 19.1 µM | GI50 (M14 melanoma): 2.94 µM | TGI (M14 melanoma): 13.5 µM | GI50 (MALME-3M melanoma): 6.24 µM | TGI (MALME-3M melanoma): 24.3 µM | GI50 (MCF7 breast): 2.1 µM | TGI (MCF7 breast): 15.4 µM | GI50 (MDA-MB-231 breast): 3.56 µM | TGI (MDA-MB-231 breast): 19.8 µM | GI50 (MDA-MB-435): 3.73 µM | TGI (MDA-MB-435): 23.7 µM | GI50 (MOLT-4 leukemia): 2.07 µM | TGI (MOLT-4 leukemia): 7.87 µM | GI50 (NCI-H226 lung): 11.2 µM | TGI (NCI-H226 lung): 31.7 µM | GI50 (NCI-H23 lung): 3.99 µM | TGI (NCI-H23 lung): 25.7 µM | GI50 (NCI-H460 lung): 3.65 µM | TGI (NCI-H460 lung): 19.2 µM | GI50 (NCI-H522 lung): 3.42 µM | TGI (NCI-H522 lung): 12.3 µM | GI50 (NCI/ADR-RES ovarian): 37 µM | TGI (NCI/ADR-RES ovarian): > 100 µM | GI50 (OVCAR-3 ovarian): 5.93 µM | TGI (OVCAR-3 ovarian): 83.5 µM | GI50 (OVCAR-4 ovarian): 7.52 µM | TGI (OVCAR-4 ovarian): > 100 µM | GI50 (OVCAR-5 ovarian): 12 µM | TGI (OVCAR-5 ovarian): 66.7 µM | GI50 (OVCAR-8 ovarian): 6.34 µM | TGI (OVCAR-8 ovarian): 33.7 µM | GI50 (PC-3 prostate): 3.03 µM | TGI (PC-3 prostate): 35.1 µM | GI50 (RPMI-8226 leukemia): 0.428 µM | TGI (RPMI-8226 leukemia): 2.73 µM | GI50 (RXF 393 renal): 0.434 µM | TGI (RXF 393 renal): 2.34 µM | GI50 (SF-268 CNS): 4.65 µM | TGI (SF-268 CNS): 72.6 µM | GI50 (SF-295 CNS): 1.25 µM | TGI (SF-295 CNS): 3.85 µM | GI50 (SF-539 CNS): 0.659 µM | TGI (SF-539 CNS): 4.02 µM | GI50 (SK-MEL-2 melanoma): 1.33 µM | TGI (SK-MEL-2 melanoma): 15.1 µM | GI50 (SK-MEL-28 melanoma): 2.31 µM | TGI (SK-MEL-28 melanoma): 16.8 µM | GI50 (SK-MEL-5 melanoma): 1.51 µM | TGI (SK-MEL-5 melanoma): 3.61 µM | GI50 (SK-OV-3 ovarian): 4.72 µM | TGI (SK-OV-3 ovarian): 28.8 µM | GI50 (SN12C renal): 8.83 µM | TGI (SN12C renal): 36.6 µM | GI50 (SNB-19 CNS): 3.68 µM | TGI (SNB-19 CNS): 21 µM | GI50 (SNB-75 CNS): 0.772 µM | TGI (SNB-75 CNS): 25.9 µM | GI50 (SW-620 colon): 3.09 µM | TGI (SW-620 colon): 13.8 µM | GI50 (T-47D breast): 2.44 µM | TGI (T-47D breast): 22.6 µM | GI50 (TK-10 renal): 9.59 µM | TGI (TK-10 renal): 55.6 µM | GI50 (U251 CNS): 0.846 µM | TGI (U251 CNS): 14.8 µM | GI50 (UACC-257 melanoma): 3.37 µM | TGI (UACC-257 melanoma): 15.7 µM | GI50 (UACC-62 melanoma): 2.41 µM | TGI (UACC-62 melanoma): 8.27 µM | GI50 (UO-31 renal): 2.42 µM | TGI (UO-31 renal): 8.18 µM

— PubChem BioAssay (NCI)
